In brackets after ≈: the same amount, converted by molar mass. Where two headings read alike, the source gives them in different places. Where a SMILES comes first, the peptide text is derived from it.
How the values were obtained:
L. lactis IL1403 = type: cell-based, Lactococcus lactis
Procedure: The bacteriocin activity was assayed using a microtitre plate assay (Holo et al., 1991, supra). The plates were incubated at 30° C. for 8 h and the growth was measured spectrophotometrically at 600 nm (A600) with 15 min intervals using SPECTROstarNano (BMG LABTECH, Germany). The MIC was defined as the minimal bacteriocin concentration that inhibited the growth of the indicator strain by at least 50% (50% of the turbidity of the control culture without bacteriocin) in 200 μl culture. MIC is equal to one bacteriocin unit (BU).
All the peptides in the experiments were synthesized by Pepmic Co., LTD, China with 90-99% purity except for CerHA, CerHB and CerVC (85% purity). Aureocin A70F is almost identical to bacteriocin AureocinA70, both being made up of four peptides (peptide A, B, C and D) but in peptide D of Aureocin A70F leucine 29 is replaced with phenylalanine (EWU40578.1). Synthesized peptides were solubilized to a concentration of 0.1 to 10 mg/ml in 0.1% (vol/vol) trifluoroacetic acid and stored at −20° C. until use.
The three identified peptides termed GarKosA, GarKosB and GarKosC were chemically synthesized and tested for antimicrobial activity. The antimicrobial activity of the individual peptides was assessed against L. lactis IL1403 (Table 6).

[1] = Tryptophan-to-alanine GarA variants, antibacterial activity; type: cell-based; settings: in combination with the other peptides of Garvicin KS
Procedure: The three tryptophan residues in GarA were replaced one by one with alanine (Table 9). Antibacterial activity was tested when used in combination with the other peptides of Garvicin KS.

CC[C@H](C)[C@H](NC(=O)[C@H](CCCCN)NC(=O)[C@H](CCCCN)NC(=O)[C@H](CC(C)C)NC(=O)CNC(=O)CNC(=O)[C@H](Cc1ccc(O)cc1)NC(=O)[C@@H](NC(=O)[C@H](C)NC(=O)CNC(=O)CNC(=O)[C@H](C)NC(=O)[C@@H](NC(=O)CNC(=O)CNC(=O)[C@H](C)NC(=O)[C@H](Cc1ccccc1)NC(=O)[C@H](C)NC(=O)[C@H](CCCCN)NC(=O)CNC(=O)[C@H](CC(C)C)NC(=O)[C@H](CCSC)NC(=O)[C@H](CCCCN)NC(=O)[C@@H](NC(=O)[C@H](C)NC(=O)[C@H](C)NC(=O)CNC(=O)[C@@H](N)CCSC)C(C)C)C(C)C)[C@@H](C)O)C(=O)N[C@@H](Cc1ccccc1)C(=O)NCC(=O)O [CerV B] (H-MGAAVKMLGKAFAGGVAGGATYGGLKKIFG-OH; N-terminus and C-terminus assumed)
MIC, single peptide (L. lactis IL1403; IL1403, 8 h): >6 µM

CC[C@H](C)[C@H](NC(=O)[C@H](CCCNC(=N)N)NC(=O)[C@@H](NC(=O)CNC(=O)[C@H](C)NC(=O)[C@H](CCC(=O)O)NC(=O)[C@H](Cc1c[nH]c2ccccc12)NC(=O)CNC(=O)[C@H](CC(C)C)NC(=O)[C@H](Cc1c[nH]c2ccccc12)NC(=O)[C@H](CO)NC(=O)[C@H](C)NC(=O)[C@H](C)NC(=O)[C@@H](NC(=O)CNC(=O)CNC(=O)[C@@H](NC(=O)[C@@H](NC(=O)[C@H](CCCCN)NC(=O)[C@H](CC(C)C)NC(=O)CNC(=O)CNC(=O)[C@H](CCCCN)NC(=O)[C@@H](NC(=O)[C@@H](NC(=O)[C@H](C)NC(=O)CNC(=O)[C@@H](N)CCSC)C(C)C)C(C)C)[C@@H](C)CC)[C@@H](C)CC)[C@@H](C)O)[C@@H](C)O)C(=O)N[C@@H](Cc1c[nH]c2ccccc12)C(=O)N[C@@H](CCCCN)C(=O)O [CerV C] (H-MGAVVKGGLKIIGGTAASWLGWEAGTRIWK-OH; N-terminus and C-terminus assumed)
MIC, single peptide (L. lactis IL1403; IL1403, 8 h): >6 µM

CC[C@H](C)[C@H](NC(=O)[C@H](C)NC(=O)CNC(=O)[C@@H](N)CCSC)C(=O)N[C@H](C(=O)N[C@@H](CCCCN)C(=O)N[C@@H](C)C(=O)NCC(=O)N[C@@H](C)C(=O)N[C@@H](CCCCN)C(=O)N[C@H](C(=O)N[C@H](C(=O)NCC(=O)N[C@@H](CCCCN)C(=O)NCC(=O)N[C@@H](C)C(=O)N[C@@H](CC(C)C)C(=O)N[C@H](C(=O)NCC(=O)NCC(=O)NCC(=O)N[C@H](C(=O)N[C@@H](Cc1c[nH]c2ccccc12)C(=O)N[C@@H](CC(C)C)C(=O)N[C@@H](C)C(=O)N[C@@H](CCC(=O)O)C(=O)N[C@@H](CCCCN)C(=O)N[C@@H](CC(C)C)C(=O)N[C@@H](Cc1ccccc1)C(=O)NCC(=O)NCC(=O)N[C@@H](CCCCN)C(=O)O)C(C)C)[C@@H](C)O)C(C)C)[C@@H](C)CC)[C@@H](C)CC [Kos C] (H-MGAIIKAGAKIVGKGALTGGGVWLAEKLFGGK-OH; N-terminus and C-terminus assumed)
MIC, single peptide (L. lactis IL1403; L. lactis IL1403, synthetic single peptide, >=50% growth inhibition): 6 µM (≈ 18.6 µg/mL)

MGAIIKAGAKIVGKGVLGGGASWLGANVGEKIWK (Altered Sequence of GarA from Lactococcus garvieae with W26A Mutation) [GarA-26A]
antibacterial activity in words [1]: no antibacterial activity

Source: patent publication US10781236B2, “Bacteriocin composition and method” (priority 2015, dated 2020)
